Test results published in publication PMC9490837, “Electronic Coupling in 1,2,3-Triazole Bridged Ferrocenes and Its Impact on Reactive Oxygen Species Generation and Deleterious Activity in Cancer Cells” (Inorganic Chemistry, 2022).
Several values for one entry are separate records, joined by “and”; a condition that tells them apart may be missing. Identical values can stand only once.

Tests used:
[1] = test system: A549 and H1975 cells; assay: ROS generation, CM-H2DCFDA fluorimetric assay, statements covering both cancer cell lines; assay type: cell-based, human; settings: 1 h; for Effect of NAC addition on ROS generation: 20 μM compound, 50 μM NAC; for ROS generation compared with cisplatin, tamoxifen and 5-fluorouracil: both cancer cell types, 20 μM
Procedure: (§1) Then, detached cells were resuspended in 0.5 mL of phosphate-buffered saline (PBS) containing 10 μM·L^–1 fluorescent probe 5-(and-6)-chloromethyl-2′,7′-dichlorodihydrofluorescein diacetate-acetyl ester (CM-H2DCFDA) and incubated for 15 min at 37 °C. Afterward, the incubation cells were centrifuged at 13,000 rpm for 30 s and resuspended in 0.5 mL of PBS. The fluorescence of each sample (index of ROS levels) was read at 488 nm (λexcitation) and 520 nm (λemission). The results were expressed as DCF fluorescence per mg cell proteins normalized vs control.

[2] = test system: H1975 cells; assay: Crystal violet cell viability / antiproliferative assay, H1975; assay type: cell-based, human; settings: for Selectivity index SInd, H1975: IC50(BEAS-2B)/IC50(H1975); for IC50: human NSCLC H1975 cells, treatment time 72 h
Procedure: (§2) Human non-small-cell lung cancer cell lines A549 and H1975 and the human bronchial epithelial BEAS-2B cell line were purchased from ATCC (Manassas, VA). Cells were cultured in Roswell Park Memorial Institute (RPMI)-1640 media supplemented with 10% v/v fetal bovine serum, 100 U·mL^–1 penicillin, and 100 μg·mL^–1 streptomycin. Cells were grown in a humidified atmosphere at 37 °C and 5% CO2.
(§3) Crystal violet staining was used to assess cell viability. […] After 72 h, the medium was discarded and cells were stained for 30 min with 5% w/v crystal violet solution in 66% v/v methanol, 200 μL per well. After staining, the crystal violet solution was removed, and the 24-well plate was washed with water to eliminate the excess solution. When dried, the plates were photographed. Quantitation of crystal violet staining was performed after solubilizing the dye in 10% acetic acid, 400 μL per well, and reading the absorbance of each well at 540 nm (HT Synergy 96-well microplate reader, Bio-Tek Instruments, Winooski, VT). The relative absorbance of untreated cells was considered as 100% viability; results were expressed as a percentage of viable cells vs untreated cells.

[3] = test system: BEAS-2B cells; assay: Crystal violet cell viability / antiproliferative assay, BEAS-2B; assay type: cell-based, human; settings: for IC50: nonmalignant human bronchial epithelium BEAS-2B cells, treatment time 72 h
Procedure: as §2, §3

[4] = test system: A549 cells; assay: Crystal violet cell viability / antiproliferative assay, A549; assay type: cell-based, human; settings: for Selectivity index SInd, A549: IC50(BEAS-2B)/IC50(A549); for IC50: human NSCLC A549 cells, treatment time 72 h
Procedure: as §2, §3

[5] = Cyclic voltammetry in dichloromethane; assay type: physicochemical; settings: for E1°′ formal potential / E3°′ formal potential / E2°′ formal potential: vs FcH/[FcH]+, CH2Cl2, 0.1 mol·L–1 [NBu4][B(C6F5)4], 25 °C, scan rate 100 mV·s–1; for KC comproportionation constant: KC = exp(nF/RT)ΔE1/2, 25 °C; for Difference between the formal potentials: first and second oxidation
Procedure: Electrochemical studies of compounds 1a, 1c, 2a, and 2c were carried out using cyclic voltammetry (CV) and square-wave voltammetry (SWV) (Table 1; Figures 5 (compounds 1a, 2a) and S13 (compounds 1c, 2c), see the SI). A solution of [NBu4][B(C6F5)4] (0.1 mol·L^–1) in anhydrous CH2Cl2 was used as the supporting electrolyte.[79] The choice of the supporting electrolyte was motivated by the beneficial properties of [B(C6F5)4]^− ions. In contrast to smaller counter ions such as [Cl]^−, [PF6]^−, [BF4]^−, or [ClO4]^−, [B(C6F5)4]^− tolerates the stabilization of greatly charged species in solution, minimizing undesired ion-pairing effects.[80],[81] The voltammetry experiments were performed at 25 °C. All potentials are referenced to the FcH/[FcH]^+ (Fc = Fe(η^5-C5H4)(η^5-C5H5)) redox couple (E°′ = 0 mV).[82]
Measurements on 1.0 mmol·L^–1 solutions of analytes 1a, 1c, 2a, and 2c in anhydrous dichloromethane solutions, containing 0.1 mol·L^–1 [NBu4][B(C6F5)4] as the supporting electrolyte, were conducted under an atmosphere of argon at 25 °C. A three-electrode cell, which utilized a Pt auxiliary electrode, a glassy carbon working electrode (surface area 0.031 cm^2), and an Ag/Ag^+ (0.01 mol·L^–1 AgNO3) reference electrode, was used as described in refs ([82]) and ([102]−[104]). […] Experimental potentials were referenced against an Ag/Ag^+ reference electrode, but results presented are referenced against the ferrocene [FcH/FcH^+ couple = 220 mV vs Ag/Ag^+, ΔEp = 61 mV; FcH = Fe(η^5-C5H5)2] as an internal standard.[82] When decamethylferrocene [Fc* = Fe(η^5-C5Me5)2] was used as an internal standard, the experimentally measured potentials were converted into Evs FcH/FcH^+ (under our conditions, the Fc*/Fc*^+ couple was at −614 mV vs FcH/FcH^+, ΔEp = 60 mV).

[6] = test system: H1975 cells; assay: ROS generation, CM-H2DCFDA fluorimetric assay, H1975; assay type: cell-based, human; settings: 20 μM, 1 h
Procedure: as §1

[7] = test system: A549 cells; assay: ROS generation, CM-H2DCFDA fluorimetric assay, A549; assay type: cell-based, human; settings: 20 μM, 1 h
Procedure: as §1

[8] = versus cisplatin, tamoxifen, 5-fluorouracil

IC50 ([2]; NCI-H1975) [µM] | IC50 [4] [µM] | E1°′ formal potential [5] | IC50 [2] [µM] | E3°′ formal potential [5] | KC comproportionation constant [5] | Difference between the formal potentials [5] [mV] | E2°′ formal potential [5] | SMILES | Effect of NAC addition on ROS generation [1] | Selectivity index SInd, H1975 ([2]; 72 h) | IC50 [3] [µM] | Selectivity index SInd, A549 ([4]; 72 h) | ROS generation compared with cisplatin, tamoxifen and 5-fluorouracil [1] | ROS generated, times more than 1c [6] | ROS generation, times more potent than reference drugs [6, 8] | Increase of cell viability with NAC compared to cells treated only with compound ([2]; H1975 cells, 20 μM compound, 50 μM NAC, 72 h) [%] | Increase of cell viability with NAC compared to cells treated only with compound ([3]; BEAS-2B cells, 20 μM compound, 50 μM NAC, 72 h) | ROS generated, times more than 1c [7] [times] | ROS generation, times more potent than reference drugs [7, 8] [times] | Increase of cell viability with NAC compared to cells treated only with compound ([4]; A549 cells, 20 μM compound, 50 μM NAC, 72 h)
– | 230 ± 13 | 60 mV and 60 (66) mV | 456 ± 17 | – | – | – | – | Cc1cn([C@H]2C[C@H](n3cc(-[c-]4cccc4)nn3)[C@@H](CO)O2)c(=O)[nH]c1=O.[Fe+2].c1cc[cH-]c1 [compound 1c, 3′-Deoxy-3′-(4-ferrocenyl-1H-1,2,3-triazol-1-yl)thymidine] | – | 0.5 | 215 ± 7 | 0.9 | more effective ROS generators | – | – | – | – | – | – | –
– | 805 ± 72 | 20 mV and 20 (61) mV | 122 ± 45 | 330 mV and 330 (67) mV | – | – | – | O=C(CCn1cc(-[c-]2cccc2)nn1)[c-]1cccc1.[Fe+2].[Fe+2].c1cc[cH-]c1.c1cc[cH-]c1 [compound 2c, 1-(3-Propionyloferrocenyl)-4-ferrocenyl-1H-1,2,3-triazole] | – | 1.6 | 198 ± 7 | 0.2 | – | – | – | – | – | – | – | –
– | 184 ± 7 | 45 mV and 45 (60) mV | 84 ± 5 | 365 mV and 365 (63) mV | 9426 | 235 | 280 mV and 280 (61) mV | O=C(CCn1nnc(-[c-]2cccc2)c1C#C[c-]1cccc1)[c-]1cccc1.[Fe+2].[Fe+2].[Fe+2].c1cc[cH-]c1.c1cc[cH-]c1.c1cc[cH-]c1 [compound 2a, 1-(3-Propionylferrocenyl)-4-ferrocenyl-5-ethynylferrocenyl-1H-1,2,3-triazole] | – | 3.0 | 257 ± 5 | 1.4 | – | – | – | – | – | – | – | –

Continued, compound first:

SMILES | IC50 ([2]; NCI-H1975) [µM] | IC50 [4] [µM] | E1°′ formal potential [5] | IC50 [2] [µM] | E3°′ formal potential [5] | KC comproportionation constant [5] | Difference between the formal potentials [5] [mV] | E2°′ formal potential [5] | Effect of NAC addition on ROS generation [1] | Selectivity index SInd, H1975 ([2]; 72 h) | IC50 [3] [µM] | Selectivity index SInd, A549 ([4]; 72 h) | ROS generation compared with cisplatin, tamoxifen and 5-fluorouracil [1] | ROS generated, times more than 1c [6] | ROS generation, times more potent than reference drugs [6, 8] | Increase of cell viability with NAC compared to cells treated only with compound ([2]; H1975 cells, 20 μM compound, 50 μM NAC, 72 h) [%] | Increase of cell viability with NAC compared to cells treated only with compound ([3]; BEAS-2B cells, 20 μM compound, 50 μM NAC, 72 h) | ROS generated, times more than 1c [7] [times] | ROS generation, times more potent than reference drugs [7, 8] [times] | Increase of cell viability with NAC compared to cells treated only with compound ([4]; A549 cells, 20 μM compound, 50 μM NAC, 72 h)
CC/C(=C(\c1ccccc1)c1ccc(OCCN(C)C)cc1)c1ccccc1 [tamoxifen] | – | – | – | – | – | – | – | – | almost no effect | – | – | – | – | – | – | – | – | – | – | –
O=c1[nH]cc(F)c(=O)[nH]1 [5-fluorouracil, reference compound] | 32 ± 12 | 69 ± 21 | – | – | – | – | – | – | almost no effect | 0.2 | 6 ± 0.1 | 0.1 | – | – | – | – | – | – | – | –
N.N.[Cl][Pt][Cl] [cisplatin, reference compound] | – | 108 ± 12 | – | 4 ± 0.1 | – | – | – | – | almost no effect | 0.7 | 3 ± 0.1 | 0.02 | – | – | – | – | – | – | – | –
Cc1cn([C@H]2C[C@H](n3nnc(-[c-]4cccc4)c3C#C[c-]3cccc3)[C@@H](CO)O2)c(=O)[nH]c1=O.[Fe+2].[Fe+2].c1cc[cH-]c1.c1cc[cH-]c1 [compound 1a, 3′-Deoxy-3′-(4-ferrocenyl-5-ethynylferrocenyl-1H-1,2,3-triazol-1-yl)thymidine] | – | 57 ± 18 | 80 mV and 80 (60) mV | 5 ± 2 | – | 2412 | 200 | 280 mV and 280 (66) mV | – | 93.8 | 469 ± 10 | 8.2 | more effective ROS generators | about 1.6 times | about 2 times | ~20 | analogous increase | ~2.5 | ~2.5 | analogous increase
